We go through one molecule from patent US9730872B2, “Method for improving skin conditions with veratric acid or acceptable salt thereof as an active ingredient” (Bio Spectrum, Inc., priority 2012, dated 2017).

Test [1] deals with procollagen type I C-peptide (PICP). Kind of test: Collagen synthesis in human normal fibroblasts (PICP EIA). Format: cell-based. To be noted: 0, 1, 10 and 100 μM, 24 hours; FIG. 4. The method, then: Human normal fibroblasts (Department of Dermatology, Ajou University) were seeded into a 24-well micro plate containing DMEM medium at a density of about 2×10^5 cells per well, and were cultured in a 5% CO2 incubator at 37° C. for 24 hours. Then, the medium was removed from each well of the plate, and each well was treated with 0, 1, 10 and 100 μM concentrations of veratric acid, after which the cells were cultured for 24 hours. Then, the cell medium was collected, thereby preparing samples.
The amounts of collagen synthesis in the above-prepared samples was determined by measuring the amount of procollagen type I C-peptide (PICP) using a Procollagen Type I C-peptide EIA kit (MK101; Takara, Kyoto, Japan).

The test system of test [2] is insulin-like growth factor-1 (IGF-1). Kind of test: IGF-1 secretion of hair follicle dermal papilla cells (ELISA). The format is cell-based, Human. To be noted: 0, 10 and 100 μM, 48 hours; FIG. 2. The procedure:
Human hair follicle dermal papillar cells (Application, Inc., USA) were seeded into a 24-well micro plate at density of 7.5×10^4 cells per well, and then were cultured in a 5% CO2 incubator at 37° C. for 24 hours. Then, the medium was replaced with serum-free medium, followed by being cultured for 16 hours. Then, each well was treated with 0, 10 and 100 μM of veratric acid, after which the cells were incubated for 48 hours. Then, the cell culture media were collected.
The secretion rate of growth factor insulin-like growth factor-1 (IGF-1) was determined by measuring the amount of secretion rate of IGF-1 using Insulin-like growth factor-1 quantikine ELISA kit (DG100, R&D system, USA).
A general note: An ELISA detects its analyte on a solid surface through an enzyme-linked reagent.

In test [3] the test system is hairless mice (Skh: HR-1). Kind of test: Wrinkle prevention by oral administration in UV-irradiated hairless mice (skin replicas). To be noted: 100 mg per kg oral, 5 weeks. Format: in vivo. The method, then: In order to measure the wrinkle-preventing effect of veratric acid, 6-7-week-old hairless mice (Skh: HR-1) were divided into a control group, a UV group and a UV/veratric acid group, each consisting of 8 animals, and were bred during the test period. The control group and the UV group were administered orally with 0.5 ml of saline, and the UV/veratric acid group was administered orally with a solution of 100 mg per kg veratric acid in 0.5 ml of saline.
The above-prepared samples were administered orally at the same point of time for 5 days a week for a total of 5 weeks. From 2 weeks to 5 weeks after oral administration, the UV group and the UV/veratric acid group were irradiated with UV light three times a week such that the total dose of UV radiation reached 600 mJ/cm^2.
To measure the wrinkle-preventing effect of veratric acid, skin replicas were taken from the back of the hairless mice using a silicon polymer before autopsy. In the same manner, after 5 weeks, skin replicas were taken from the groups treated with each of the samples. Using the taken skin replicas, the antiaging effect, i.e., wrinkle-reducing effect of each sample was measured.

The subject of test [4] is transforming growth factor-beta1 (TGF-beta1). The experiment in a line: Inhibition of TGF-beta1 production in hair follicle dermal papilla cells (ELISA). The format is cell-based, Human. Conditions: 0, 10 and 100 μM, 48 hours; FIG. 3. The method, then: Human hair follicle dermal papillar cells (Application, Inc., USA) were seeded into a 24-well micro plate at a density of 7.5×10^4 cells per well, and then were cultured in a 5% CO2 incubator at 37° C. for 24 hours. Then, the medium was replaced with serum-free medium, followed by being cultured for 16 hours. Then, each well was treated with 0, 10 and 100 μM of veratric acid, after which the cells were incubated for 48 hours. Then, the cell culture media were collected.
The secretion rate of transforming growth factor-beta1 (TGF-beta1) was determined by measuring the amount of secretion rate of TGF-beta1 using Human LAP TFG-beta1 ELISA kit (ab100647, abcam, USA).

The test system of test [5] is fibroblast. Kind of test: UV-preventing effect, cell viability after UVB (MTT), fibroblasts. The format is cell-based. Conditions: pretreated 0, 1, 10 and 100 μM 24 hours, UVB 20 mJ/cm^2, 48 hours; FIG. 5. The method, then: (§1) Keratinocyte (HaCaT) and fibroblast were cultured in DMEM medium containing penicillin-streptomycin and serum. Then, the cells were seeded into a 12-well micro plate at density of about 1×10^5 cells per well, and were cultured in a 5% CO2 incubator at 37° C. until the cells attached about 80% over on well-area. Then, each well was pretreated with 0, 1, 10 and 100 μM of veratric acid, and after 24 hours, the medium was replaced with PBS, and then the cells were irradiated with UV (UVB 20 mJ/cm^2). Then, the UV-irradiated cells were replaced DMEM medium containing penicillin-streptomycin and serum, the cells were incubated for 48 hours. The cell viability was determined by measuring the viability of keratinocyte (HaCaT) and fibroblast using a MTT assay (30-1010K, ATCCTM).

Test [6] deals with Human hair follicle dermal papillar cells. Kind of test: Proliferation of human hair follicle dermal papilla cells (MTT). The format is cell-based. To be noted: 0, 10 and 100 μM, 72 hours, FIG. 1. The procedure:
Human hair follicle dermal papillar cells (Application, Inc., USA) were seeded into a 6-well micro plate containing DMEM medium (Gibco, USA) with FBS at a density of 3×10^5 cells per well, and then were cultured in a 5% CO2 incubator at 37° C. for 24 hours. The next day, the cells were washed once with serum-free medium, and the medium was replaced with serum-free medium. Then, the cells were treated with 0, 10 and 100 μM of veratric acid, followed by incubating for 72 hours, after which the cells were washed once with serum-free medium, the medium was replaced with serum-free medium containing 10% MTT, and after 3 hours, the optical density (O.D.) value was measured and calculated as a percentage of control.

Test [7] relates to human skin. The experiment in a line: Wrinkle-reducing effect of nourishing cream, skin elasticity. The format is in vivo. Conditions: face, twice a day, 3 months, scale 0 to 5. The procedure:
Specifically, an aqueous phase including purified water, triethanolamine, and propylene glycol was dissolved by heating to 70° C., and an oily phase including fatty acid, oily components, an emulsifier, and a preservative was dissolved by heating to 70° C. and added to the aqueous phase. Then, the resulting solution was cooled to 45° C., and veratric acid was added with in amounts of 0, 0.01, 0.05 and 1 wt % based on the total weight of the composition and was dispersed, followed by cooling to 30° C.
In the measurement of skin elasticity, nourishing creams described in Preparation Example 8-1 was applied to the face of 30 healthy women of 21 to 42 years old twice a day for 3 months. The control group was used nourishing cream containing purified water.
The effect on wrinkle reduction was evaluated by measuring a change in skin elasticity. The measurement of skin elasticity was performed with Coutometer SEM 474 (Courage+Khazaka, Cologne, Germany) under the conditions of constant temperature of 24˜26° C. and constant humidity of 38-40%. The evaluation criteria were as follows 0 indicating no improvement in skin elasticity, and 5 indicating improvement in skin elasticity.

Test [8] concerns Keratinocyte (HaCaT). Kind of test: UV-preventing effect, cell viability after UVB (MTT), keratinocytes. The format is cell-based. Conditions: pretreated 0, 1, 10 and 100 μM 24 hours, UVB 20 mJ/cm^2, 48 hours; FIG. 6. The method, then: as §1
Test [9] has as its system collagenase (MMP-1). The experiment in a line: Inhibition of collagenase production in human normal fibroblasts (MMP-1 ELISA). The format is cell-based. To be noted: 0, 1, 10 and 100 μM, 24 hours; FIG. 7. The procedure: Human normal fibroblasts (Department of Dermatology, Ajou University) were seeded into a 24-well micro plate containing DMEM medium at a density of about 2×10^5 cells per well, and were then cultured in a 5% CO2 incubator at 37° C. for 24 hours. Then, the medium was removed from each well, and the cells were treated with 0, 1, 10 and 100 μM concentrations of veratric acid. Then, the cells were cultured for 24 hours, after which the cell culture media were collected, thereby preparing samples.
The inhibition effects of collagenase production was determined by measuring the amount of collagenase using MMP-1 ELISA kit (QIA55, Merck, Germany).

[10] abbreviates: UV/veratric acid group, UV total 600 mJ/cm^2.

With `COc1ccc(C(=O)O)cc1OC` [Veratric acid, 3,4-dimethoxybenzoic acid], in test [1], the “collagen synthesis (PICP)” value was “increased collagen synthesis”. The IGF-1 secretion entry in test [2] is on record as “increased the IGF-1 secretion of human hair follicle dermal pailla cells in a concentration-dependent manner”. Moreover, the “R-parameter value compared to the UV/control groups” value in test [3] is listed as “reduced”. In test [3] (setting [10]), the “R1 value: Skin roughness” value was found to be 0.462 ± 0.013, the “R2 value: Maximum roughness” value is recorded as 0.405 ± 0.011, the “R3 value: Average roughness” value came to 0.219 ± 0.012 and the “R4 value: Smoothness depth” value stood at 0.116 ± 0.010. The “R5 value: Arithmetic average roughness” value in test [3] (setting [10]) turned out to be 0.290 ± 0.013. In addition, the TGF-beta1 production result in test [4] was “excellently inhibited TGF-beta1 production”. In addition, in test [5], the “cell death of UV-induced fibroblasts (cell viability)” value is “prevented cell death”. The “proliferation of human hair follicle dermal papilla cells (O.D. as percentage of control)” value in test [6] is on record as “increased the proliferation of human hair follicle dermal papilla cells in a concentration-dependent manner”. Further, the Skin elasticity in test [7] (veratric acid 0.01 wt %) is reported as 2.81. In test [7] (veratric acid 0.05 wt %), this molecule came in with a Skin elasticity of 3.12. Besides, the Skin elasticity in test [7] (veratric acid 1 wt %) came out at 3.36. Further, the “cell death of UV-induced keratinocyte (cell viability)” value in test [8] is listed as “prevented cell death”. In addition, the collagenase production entry in [9] was “decreased collgenase production in human normal fibroblasts”.
